What all share (test): Cancer spheroid cell death test (PrestoBlue)
Type in all cases: cell-based

For assay [1], the system named is human lung cancer cells (H358). As to conditions: compound alone. As for the experimental part:
(§1) Custom-made micromolds with 100 μm diameter wells were loaded with the cells (U.S. Pat. No. 8,735,154, incorporated by reference herein). The media were changed every day by partial replacement. Cell aggregates were allowed to form in the micromolds for 72 hours and then were transferred to a 100 mm non-treated tissue culture dishes for 3 additional days. The spheroids were passed through 70 μm and 100 μm cell strainers (#3431751 and #43152, Corning, Tewksbury, Mass.) and maintained in HEPES Balanced Salt Solution comprised of: 20 mM HEPES, 114 mM NaCl, 4.7 mM KCl, 1.2 mM KH2PO4, 1.16 mM MgSO4, 2.5 mM CaCl2, 25.5 mM NaHCO3 and 0.2% bovine serum albumin (fatty acid free), pH 7.2.
The lymphomas treatment methods used were identical to those described in Example 2 relative to the pediatric leukemia cells, whereas the lung cancer treatment method was the same as described in Example 1.

The subject of assay [2] is human prostate cancer cells (22rv1). The settings on record: compound alone. As for the experimental part: as §1
(§2) The cells were treated and tested as set forth in Example 1.

In assay [3] the test system is human ovarian cancer cells (A1847). The settings on record: for anticancer effects (cell number versus increasing concentrations): compound alone. As for the experimental part:
as §1, §2

In the case of `COc1cccc(C=O)c1O` [O-vanillin], the “anticancer effects (cell number versus increasing concentrations)” value in assay [1], in assay [2] and in assay [3] was “demonstrated anticancer effects” in each case.

Consider `COc1cccc2c1C(=O)c1c(O)c3c(c(O)c1C2=O)C[C@@](O)(C(=O)CO)C[C@@H]3O[C@H]1C[C@H](N)[C@H](O)[C@H](C)O1` [doxorubicin, reference compound], for which the “cell death, doxorubicin alone” value in assay [3] (low doses of doxorubicin alone (up to 0.158 μM)) is “ineffective”.

Regarding `COc1ccc2c3c([nH]c2c1)C(C)=NCC3` [harmaline], the “anticancer effects (cell number versus increasing concentrations)” value in assay [1], in assay [2] and in assay [3] was “demonstrated anticancer effects” throughout.

For the molecule `CC1=NCCc2c1[nH]c1cc(O)ccc21.Cl` [harmalol hydrochloride], the “anticancer effects (cell number versus increasing concentrations)” value in assay [1], in assay [2] and in assay [3] was “demonstrated anticancer effects” each time.

In the case of `Cc1nccc2c1[nH]c1cc(O)ccc12.Cl` [harmole hydrochloride], the “anticancer effects (cell number versus increasing concentrations)” value in assay [1], in assay [2] and in assay [3] was “demonstrated anticancer effects” throughout.

With `COc1ccc(C(=O)O)cc1O` [isovanillic acid], the “anticancer effects (cell number versus increasing concentrations)” value in assay [1], in assay [2] and in assay [3] was “demonstrated anticancer effects” throughout.

Consider `COc1ccc(CO)cc1O` [isovanillyl alcohol], for which the “anticancer effects (cell number versus increasing concentrations)” value in assay [1], in assay [2] and in assay [3] was “demonstrated anticancer effects” each time.

Regarding `COc1ccc2c3c([nH]c2c1)[C@@H](C)NCC3` [tetrahydro-harmine], the “anticancer effects (cell number versus increasing concentrations)” value in assay [1], in assay [2] and in assay [3] was “demonstrated anticancer effects” in each case.

As to `COc1cc(C=O)ccc1O` [vanillin], the “anticancer effects (cell number versus increasing concentrations)” value in assay [1], in assay [2] and in assay [3] was “demonstrated anticancer effects” in each case.

For the origin of these results see US20160106722A1, “HUMAN THERAPEUTIC AGENTS” (Life Plus, LLC, priority 2014, published 2016).
